In US11993594B2, “IRAK inhibitors and method for making and using” (Rigel Pharmaceuticals, Inc., priority 2016, dated 2024) one finds EC50 data, which are given here for five compounds.

Structures can show the parent of a compound that is named as a salt. Where two headings read alike, the source gives them in different places.

A word on the EC50: it is the concentration giving half of the maximal effect.

Assay [1] relates to LPS Induced IL23p19 in THP-1 Cells. As to the kind of experiment: LPS Induced IL23p19 in THP-1 Cells (with IFNγ Primed) Assay. The class given is cell-based, human. Particulars: THP-1 cells primed with IFNγ 50 ng/mL, LPS 1 ug/mL, 18 hours, 10 pt, read-out: IL23-p19 ELISA, THP1-IFNγ, LPS, 10 pt EC50. The procedure, abridged: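 THP-1 cells (50K/well) are primed with IFNγ at 50 ng/mL for about 18 h. They are then pre-treated with compound for 1 h and stimulated with LPS at 1 ug/mL final for 18 h at 37 °C. Secreted IL-23p19 is measured by chemiluminescent sandwich ELISA and EC50 is derived by curve fitting, with Cell Titer Glo as a viability counter-screen.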
In general terms: ELISA stands for enzyme-linked immunosorbent assay.

Assay [2] relates to LPS induced IL-23 (p19/p40) in DC cells. Kind of assay: IL23-p19 ELISA, dendritic (DC) cells differentiated from human PBMC, LPS stimulated. The class given is cell-based. To be noted: LPS 1 μg/ml, 18 hours, 10 pt. An outline of the steps:
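Human PBMC-derived dendritic cells (7 days GM-CSF 100 ng/ml plus IL-4 20 ng/ml, then primed 24 h with IFNγ 50 ng/ml) pre-incubated 1 h with compound, then stimulated 18 h at 37 °C with LPS 1 μg/ml. Supernatant IL-23 measured by sandwich chemiluminescent ELISA (anti-p19 capture, anti-p40 detection); cytotoxicity by CellTiter-Glo.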

In the case of `O=C(Nc1cn([C@H]2C[C@H](N3CCOCC3)C2)nc1-c1cnccn1)c1coc(-c2cn[nH]c2)n1` [Compound I-33, N-(1-((1r,3r)-3-morpholinocyclobutyl)-3-(pyrazin-2-yl)-1H-pyrazol-4-yl)-2-(1H-pyrazol-4-yl)oxazole-4-carboxamide], the EC50 amounted to 59.1 nM in assay [1] (Homo sapiens, Table 1) and 23.4 nM in assay [2] (Table 1, IFNγ 50 ng/ml).
The matching figures for `O=C(Nc1cn([C@H]2C[C@@H](N3CCOCC3)C2)nc1-c1cnccn1)c1coc(-c2cn[nH]c2)n1` [Compound I-34, N-(1-((1s,3s)-3-morpholinocyclobutyl)-3-(pyrazin-2-yl)-1H-pyrazol-4-yl)-2-(1H-pyrazol-4-yl)oxazole-4-carboxamide]: 7.8 nM and 18.8 nM.
In the same order, the values of `O=C(Nc1cn(C2CCC(N3CCOCC3)CC2)nc1-c1cnccn1)c1coc(-c2c[nH]nc2F)n1` (stereo not shown) [Compound I-35, 2-(3-fluoro-1H-pyrazol-4-yl)-N-(1-((1r,4r)-4-morpholinocyclohexyl)-3-(pyrazin-2-yl)-1H-pyrazol-4-yl)oxazole-4-carboxamide formic acid salt] are 78 nM and 46.5 nM.
For the compound `O=C(Nc1cn([C@H]2C[C@@H](O)C2)nc1-c1cnccn1)c1coc(-c2cn[nH]c2)n1` [Compound I-38, N-(1-((1s,3s)-3-hydroxycyclobutyl)-3-(pyrazin-2-yl)-1H-pyrazol-4-yl)-2-(1H-pyrazol-4-yl)oxazole-4-carboxamide], the EC50 in assay [1] (Homo sapiens, Table 1) was determined as 2.6 nM; in assay [2] (Table 1, IFNγ 50 ng/ml), 39.9 nM.
In the case of “N-(1-(2-(2-methoxyethoxy)ethyl)-3-(pyridin-2-yl)-1H-pyrazol-4-yl)-2-(1H-pyrazol-4-yl)oxazole-4-carboxamide [Compound I-24]”, the EC50 came to 238 nM in assay [1] (Table 3) and 217 nM in assay [2] (Table 3, IFNγ 50 ng/ml).
